Marks after values point to notes of the source that are not given here.

The data set is described as follows: Mean marker change from baseline after treatment (TU, TT 14-day, TD single dose, TU depot injection, topical T after 7 days). In kind it is in vivo. The following applies: for Cmax to mean Cave ratio: range calculated from the average low and average high for the 5 arms tested. The source says:
The mean marker change from baseline in the foregoing tables can be measured at various times including: hours after treatment commences, 7 to 14 days after treatment commences, and during treatment.
A-E are all the 14-day timepoint
TU Depot Injection—after Single Dose

As to `CCCCCCCCCCCCC(=O)O[C@H]1CC[C@H]2[C@@H]3CCC4=CC(=O)CC[C@]4(C)[C@H]3CC[C@]12C` [TT, testosterone tridecanoate], under “total daily TT dose 300 mg”, the “Mean marker change from baseline in serum (e.g. IL-2, IL-6, TNF-Alpha, CRP, SHBG, MCP-1, AST, ALT, ALP)” value is listed as −5% to −35% and the “Cmax to mean Cave ratio” value is given as 1.72-3.08*. In addition, for the setting “total daily TT dose 2700 mg”, the “Mean marker change from baseline in serum (e.g. IL-2, IL-6, TNF-Alpha, CRP, SHBG, MCP-1, AST, ALT, ALP)” value is −5% to −35% and the “Cmax to mean Cave ratio” value is reported as 1.72-3.09*.

The values above are taken from patent US20210361673A1, “COMPOSITIONS AND METHODS OF TREATING VIRAL INFECTIONS” (Lipocine Inc., priority 2020, published 2021).
